Laboratory results reported in patent US6710077B1, “Use of thiocarboxanilide derivatives for the preparation of a medicament for preventing the transmission of HIV to uninfected cells and contraceptive compositions comprising the said derivatives” (Uniroyal Chemical Company, Inc., priority 1996, dated 2004).

Assays:
HIV-1 = assay: Preincubation of isolated HIV-1 with test compounds, then infection of PHA-activated CBMC; conditions: 2 hours at 37° C., drug removed, RT activity and p24 on day 7, FIG. 1
Description: Identical viral inocula (with respect to viral p24 levels) were then added to PHA-activated CBMC. Viral infectivity was assessed by measurement of RT activity in cell-free culture supernatants after 7 days incubation of cells and virus. […] The results are averages ±S.D. of triplicate determinations from three separate experiments.
All cells were cultured in RPMI medium containing 10% fetal bovine serum. HIV-1 stocks were propagated by subculture in MT-2 cells; aliquots of the cell-free culture supernatants were generally used as viral inocula. In some cases, virus was further concentrated from these cell-free supernatants by ultracentrifugation. CBMC were prestimulated with phytohemagglutinin (PHA) prior to use in infection experiments, as described in Rooke et al, Virology 176: 205-215 (1990). Stock solutions of the test compounds were prepared in dimethyl sulfoxide (DMSO). […] Virus production was assessed by measurement of RT activity and viral p24 antigen levels in the culture supernatants.
After incubation, drug-free RPMI was added to a final volume of 15 ml and the diluted sample was concentrated to a final volume of 0.7 ml using a Centriprep-100 centrifugal concentrating device, according to manufacturer's directions. […] On day 7, culture supernatants were isolated and HIV production assessed by measurement of RT activity and p24 antigen levels in the cell-free supernatants.

[1] = system: PBL cells isolated from blood of HIV-1 infected patients; assay: Incubation of PBL from HIV-1 infected patients with compound, then co-culture with CBMC; assay type: cell-based; conditions: for infectivity of HIV-1 produced by patient PBL: 10 μM, 2 hr at 37° C., drug removed, co-culture with CBMC, p24 antigen, FIG. 3
Description: FIG. 3 depicts the effect of pretreatment of peripheral blood lymphocytes (PBL) from HIV-1 infected patients with Compound IA on the subsequent virus infectivity of CBMC cells. 2×10^6 isolated PBL cells were incubated for 2 hours with media only (●), 10 μM nevirapine (▪), or 10 μM Compound IA (▴), then residual drug was removed. The cells were then co-cultured with 2×10^6 CBMC cells and p24 production was monitored.
PBL cells (2×10^6 cells) isolated from blood of HIV-1 infected patients were incubated with media, 10 μM nevirapine and 10 μM Compound IA, in a total volume of 1 ml for 2 hr at 37° C. Excess drug was then removed by pelleting the cells by centrifugation at 300×g for 10 min and removal of the medium. The cell pellet was washed by suspension in 10 ml media, followed by centrifugation. This washing step was repeated twice. The final cell pellet was resuspended in 1 ml media, then co-cultured with 1 ml of activated CBMC (2×10^6 cells) The culture medium was changed every two days, and fresh activated CBMC (2×10^6 cells) were added once a week. HIV-1 production was monitored by measurement of p24 antigen levels in cell-free culture supernatants.
FIG. 3 illustrates the results obtained using PBL from three different patients.

[2] = system: HIV-1 chronically-infected H9 cells; assay: Incubation of HIV-1 chronically-infected H9 cells with test compounds, then infectivity on MT-2 cells; assay type: cell-based
Excerpt: FIG. 2 depicts the effect of pretreatment of chronically-infected H9 cells with Compound IA or UC84 on (A) virus particle release from H9 cells during drug exposure, as assessed by measurement of HIV-1 p24 levels; (B) infectivity of isolated virus produced by H9 cells during drug treatment, as assessed by the ability to subsequently infect MT2 cells in the absence of drug; and (C) the ability of Compound IA-pretreated chronically-infected H9 cells to subsequently infect MT2 cells in co-culture experiments carried out in the absence of drug. The data illustrated for (B) and (C) were obtained four days after exposure of MT2 cells to virus or H9 cells, respectively. (∘) Compound UC84; (●) Compound IA.
The cells were then separated from the culture supernatants by centrifugation at 1000×g for 10 min. The virus particles were isolated from the culture supernatants and from residual Compound IA using Centriprep-100 centrifugal concentrating devices and the dilution/concentration protocol described above in Example 1. The pelleted H9 cells were washed by suspension in 10 ml RPMI, followed by centrifugation at 1000×g for 10 min. The cell pellet was resuspended in 4 ml RPMI/10% FBS, and used in co-culture experiments as described below.
Aliquots of the final concentrated HIV suspension were added to MT-2 cells ([…] cells/ml). Virus infectivity was assessed 6 days post-infection by analysis of syncytium formation, and RT activity and p24 antigen in the MT-2 cell culture supernatants. Similarly, aliquots of the drug-treated H9 cells were added to MT-2 cells (3×10^5 cells/ml) to give a final MT-2:H9 cell ratio of 30:1. Cells were co-cultured for 4 days, and HIV infection of MT-2 cells was scored by assessing syncytium formation and by analysis of RT activity in the culture supernatants.

[3] = system: HIV-1 infection of uninfected MT-2 cells; conditions: MT-2 cells pretreated with 2 μM, drug removed, continued presence of HIV-1
Description: FIG. 4A: Uninfected MT2 cells were incubated for 18 hours with varying concentrations of Compound IA in 1 ml media, then the cells were pelleted by centrifugation, and washed twice by resuspension in 10 ml medium followed by centrifugation. The cells were exposed to identical inocula of HIV-1 and cultured in the absence of added drug. Four days after removal of Compound IA, the extent of HIV-1 infection was assessed by measurement of syncytia formation (●), viral p24 antigen levels (▴), and RT activity (∘), in cell-free supernatants. […] Uninfected MT2 cells were incubated for 18 hours in the absence (∘) or the presence of 0.5 μM (▴), 1 μM (∇), or 2 μM (●), of Compound IA. […] Viral cytopathicity was scored by microscopic assessment of syncytia formation. […]
FIG. 5A: Uninfected MT2 cells were incubated for 18 hours in the absence (▪) or the presence (●) of 2 μM of Compound IA, then the cells were isolated and cultured in the absence of drug. At various times thereafter, HIV-1 was added and virus infectivity assessed by microscopic analysis of syncytium formation. […]
All cells were cultured in RPMI medium containing 10% fetal bovine serum. […] Virus production was assessed by measurement of RT activity and viral p24 antigen levels in the culture supernatants. […]

Row | SMILES | viral infectivity after preincubation of isolated HIV-1 with compound (HIV-1) | viral infectivity after 30 days co-culture with uninfected CBMC ([1]; 10 μM pretreatment of patient PBL, 30 days co-culture) | infectivity of HIV-1 produced by patient PBL [1] | persistence of attenuated infectivity following removal of extracellular compound ([2]; chronically-infected H9 cells) | infectivity of virus produced by H9 cells following removal of compound ([2]; pretreated, washed H9 cells co-cultured with MT-2 cells in absence of drug) | infectivity of virus particles isolated after exposure of chronically-infected H9 cells ([2]; virus isolated from culture supernatants, added to MT-2 cells in absence of drug, FIG. 2) | duration of resistance to the cytopathic effect of HIV-1 [3] | resistance of pretreated cells to the cytopathic effect of HIV-1 ([3]; syncytium formation)
1 | CC(C)=CCOc1cc(NC(=S)c2ccoc2C)ccc1Cl [Compound IA, N-[4-chloro-3-(3-methyl-2-butenyloxy)phenyl]-2-methyl-3-furancarbothioamide] | rendered non-infectious | No viral infectivity | abolished the infectivity | at least 4 days | also attenuated in infectivity | significantly attenuated in infectivity | at least 9 days | completely resistant
2 | Cc1ccnc2c1NC(=O)c1cccnc1N2C1CC1 [nevirapine, reference compound] | No viral inactivation | – | unable to significantly delay viral infectivity | – | – | – | – | –
